Among the data in patent US9365562B2, “1,3 substituted azetidine PDE10 inhibitors” (Merck Sharp & Dohme Corp., priority 2011, dated 2016) are Ki values, retold here.

Sequence of human PDE10A2 (Q9Y233 267-1055): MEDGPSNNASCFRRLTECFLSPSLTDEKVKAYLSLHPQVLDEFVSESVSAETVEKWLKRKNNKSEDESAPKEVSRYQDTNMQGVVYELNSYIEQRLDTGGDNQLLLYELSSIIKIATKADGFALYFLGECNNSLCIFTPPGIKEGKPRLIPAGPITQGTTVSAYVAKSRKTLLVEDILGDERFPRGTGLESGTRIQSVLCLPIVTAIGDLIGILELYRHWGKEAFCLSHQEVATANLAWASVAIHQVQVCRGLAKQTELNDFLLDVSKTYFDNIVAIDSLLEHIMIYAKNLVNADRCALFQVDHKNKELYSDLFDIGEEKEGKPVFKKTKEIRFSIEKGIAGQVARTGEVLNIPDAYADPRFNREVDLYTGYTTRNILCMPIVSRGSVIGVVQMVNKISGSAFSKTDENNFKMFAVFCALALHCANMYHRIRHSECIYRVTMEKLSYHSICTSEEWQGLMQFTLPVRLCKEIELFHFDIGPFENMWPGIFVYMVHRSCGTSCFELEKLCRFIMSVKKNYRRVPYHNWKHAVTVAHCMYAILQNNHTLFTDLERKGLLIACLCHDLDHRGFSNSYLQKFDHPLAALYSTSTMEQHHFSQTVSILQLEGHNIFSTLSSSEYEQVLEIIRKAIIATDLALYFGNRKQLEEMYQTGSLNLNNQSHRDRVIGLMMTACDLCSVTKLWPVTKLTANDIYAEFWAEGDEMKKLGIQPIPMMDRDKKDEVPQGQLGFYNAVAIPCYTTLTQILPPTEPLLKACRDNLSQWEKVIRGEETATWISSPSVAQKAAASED

This assay concerns the target human PDE10A2 (Homo sapiens (Human), UniProt Q9Y233). Put plainly: PDE10 fluorescence polarization (IMAP FP) inhibition assay. Format: biochemical. Conditions: apparent inhibition constant, FAM-labeled cAMP substrate 50 nM, room temperature. Summed up:
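Cytoplasmic lysate of AD293 cells transiently expressing human PDE10A2, enzyme preincubated 60 min at room temperature with compounds (1% DMSO), then 50 nM FAM-cAMP added for 60 min. Buffer 10 mM Tris HCl pH 7.2, 10 mM MgCl2, 1 mM DTT; IMAP binding reagent stop, FP read after ≥1 h.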
In general terms: In fluorescence polarisation assays a small probe gives low polarisation when free and higher when bound to something large.
For `Cc1nc(N2CC(c3nc4cccc(F)c4[nH]3)C2)cc(-n2nc(C)nc2C)n1` [Example 108, 2-(1-(6-(3,5-dimethyl-1H-1,2,4-triazol-1-yl)-2-methylpyrimidin-4-yl)azetidin-3-yl)-7-fluoro-1H-benzo[d]imidazole], the Ki was found to be 19 nM. The result for `Cc1cnn(-c2cc(N3CC(c4nc5ccccc5n4C)C3)nc(C)n2)c1` [Example 2, 1-methyl-2-(1-(2-methyl-6-(4-methyl-1H-pyrazol-1-yl)pyrimidin-4-yl)azetidin-3-yl)-1H-benzo[d]imidazole] reads 0.61 nM.

With `COc1nc(N2CC(c3nc4ccccc4n3C)C2)cc(-n2nc(C)nc2C)n1` [Example 62, 2-{1-[6-(3,5-dimethyl-1H-1,2,4-triazol-1-yl)-2-methoxypyrimidin-4-yl]azetidin-3-yl}-1-methyl-1H-benzimidazole], the Ki stood at 0.76 nM. The value for `CCOC(=O)Cc1nc(N2CC(c3nc4ccccc4n3C)C2)cc(-n2nc(C)nc2C)n1` [Example 26, ethyl 2-(4-(3,5-dimethyl-1H-1,2,4-triazol-1-yl)-6-(3-(1-methyl-1H-benzo[d]imidazol-2-yl)azetidin-1-yl)pyrimidin-2-yl)acetate] was 3.1 nM; that for `Cc1nc(C)n(-c2cc(N3CC(c4nc5ccccc5n4C)C3)nc(-n3ccnc3C)n2)n1` [Example 77, 2-(1-(6-(3,5-dimethyl-1H-1,2,4-triazol-1-yl)-2-(2-methyl-1H-imidazol-1-yl)pyrimidin-4-yl)azetidin-3-yl)-1-methyl-1H-benzo[d]imidazole] was 0.26 nM.

Consider `Cc1nc(N2CC(c3nc4ccccc4n3C)C2)cc(-n2ccc(C(C)C)n2)n1` [Example 14, 2-(1-(6-(3-isopropyl-1H-pyrazol-1-yl)-2-methylpyrimidin-4-yl)azetidin-3-yl)-1-methyl-1H-benzo[d]imidazole], for which the Ki is 0.65 nM.

With `Cc1nc(C)n(-c2cc(N3CC(c4nc5ccccc5n4C)C3)nc(-n3cccn3)n2)n1` [Example 76, 2-(1-(6-(3,5-dimethyl-1H-1,2,4-triazol-1-yl)-2-(1H-pyrazol-1-yl)pyrimidin-4-yl)azetidin-3-yl)-1-methyl-1H-benzo[d]imidazole], the Ki amounted to 0.61 nM. For the compound `COc1cnn(-c2cc(N3CC(c4nc5ccccc5n4C)C3)nc(C)n2)c1` [Example 18, 2-(1-(6-(4-methoxy-1H-pyrazol-1-yl)-2-methylpyrimidin-4-yl)azetidin-3-yl)-1-methyl-1H-benzo[d]imidazole], the Ki came out at 3.2 nM. For the compound `Cc1nc(N2CC(c3nc4ccccc4n3C)C2)cc(-n2nc(C(F)(F)F)nc2C)n1` [Example 21, 1-methyl-2-(1-(2-methyl-6-(5-methyl-3-(trifluoromethyl)-1H-1,2,4-triazol-1-yl)pyrimidin-4-yl)azetidin-3-yl)-1H-benzo[d]imidazole], the Ki came to 7 nM.

Turning to `Cc1nc(N2CC(c3nc4ccccc4n3C)C2)cc(-n2nc(C)nc2-c2ccccc2)n1` [Example 49, 1-methyl-2-(1-(2-methyl-6-(3-methyl-5-phenyl-1H-1,2,4-triazol-1-yl)pyrimidin-4-yl)azetidin-3-yl)-1H-benzo[d]imidazole], the Ki was determined as 6.8 nM. As for `Cc1nc(C)n(-c2cc(N3CC(c4nc5ccccc5n4C)C3)nc(C#N)n2)n1` [Example 79, 4-(3,5-dimethyl-1H-1,2,4-triazol-1-yl)-6-[3-(1-methyl-1H-benzimidazol-2-yl)azetidin-1-yl]pyrimidine-2-carbonitrile], the Ki was determined as 0.28 nM. As for `Cc1nc(N2CC(c3nc4ccccc4n3C)C2)cc(-n2nc(C)nc2C[C@@H](C)O)n1` [Example 41, (R)-1-(3-methyl-1-(2-methyl-6-(3-(1-methyl-1H-benzo[d]imidazol-2-yl)azetidin-1-yl)pyrimidin-4-yl)-1H-1,2,4-triazol-5-yl)propan-2-ol], the Ki was found to be 1 nM.

As for `Cc1cnn(-c2cc(N3CC(c4nc5ccccc5n4C)C3)nc(C(F)(F)F)n2)n1` [Example 31, 1-methyl-2-(1-(6-(4-methyl-2H-1,2,3-triazol-2-yl)-2-(trifluoromethyl)pyrimidin-4-yl)azetidin-3-yl)-1H-benzo[d]imidazole], the Ki amounted to 1.2 nM.
